The subject of one data set is B. megaterium cells. Description: Membrane permeability assay with propidium iodide. The class given is cell-based, Bacillus megaterium.
Data set [1] has as its system Aspergillus fumigatus CEA17, A. nidulans A28 and RCho15, A. niger, Geotrichum candidum, Neurospora crassa. As to conditions: summary of Table 1; range stated for DtDRS-1 and DRS together.
The test system of data set [2] is Neurospora crassa CGMCC 3.1605. In words: Inhibition zone assay. Type of data set: cell-based. Particulars: N.A. = no inhibition zone at 0.8–1.0 nmol peptides each well. Here is the method:
(§1) Antimicrobial activity of peptides was assessed by the inhibition zone assay. Membrane permeability assay was performed according to the method previously reported. Sources of microbial strains used here are listed in Supplementary Table S2.

For data set [3], the system named is Aspergillus nidulans RCho15. In words: Inhibition zone assay. The class given is cell-based. As to conditions: N.A. = no inhibition zone at 0.8–1.0 nmol peptides each well. Here is the method:
as §1

Data set [4] has as its system Aspergillus fumigatus CEA17. In words: Inhibition zone assay. Type of data set: cell-based. As to conditions: mutant (pyrG-), N.A. = no inhibition zone at 0.8–1.0 nmol peptides each well. Here is the method: as §1
Data set [5] deals with Geotrichum candidum CCTCC AY 93038. Description: Inhibition zone assay. The class given is cell-based. As to conditions: N.A. = no inhibition zone at 0.8–1.0 nmol peptides each well. As to the method:
as §1

In another data set the test system is Aspergillus nidulans A28. Description: Inhibition zone assay. Type of data set: cell-based. Particulars: N.A. = no inhibition zone at 0.8–1.0 nmol peptides each well. As to the method: as §1
In a further data set the test system is Aspergillus niger. Description: Inhibition zone assay. The class given is cell-based. Particulars: N.A. = no inhibition zone at 0.8–1.0 nmol peptides each well. As to the method:
as §1

The test system of data set [6] is Xanthomonas oryzae pv.oryzae. As to conditions: inhibition zone assay; Gram-negative; N.A. = no inhibition zone at 0.8–1.0 nmol peptides each well.
Assay in data set [7]: not given
The source holds these as a separate data set.

Assay in data set [8]: not given
This is another data set of the same source.

Assay in data set [9]: not given
This is another data set of the same source.

Data set [10] deals with Bacillus megaterium CGMCC 1.0459. Description: Inhibition zone assay. Type of data set: cell-based. Particulars: Gram-positive, N.A. = no inhibition zone at 0.8–1.0 nmol peptides each well. Here is the method: as §1
For data set [11], the system named is Micrococcus luteus CGMCC 1.0290. In words: Inhibition zone assay. The class given is cell-based. As to conditions: Gram-positive, N.A. = no inhibition zone at 0.8–1.0 nmol peptides each well. Here is the method:
as §1

Data set [12] concerns Bacillus megaterium and Micrococcus luteus. In words: Inhibition zone assay, summary over two Gram-positive bacteria. Type of data set: cell-based. As to conditions: summary of Table 1.
In data set [13] the test system is G. candidum and N. crassa. Description: Inhibition zone assay, summary over two fungal species. Type of data set: cell-based. Particulars: summary of Table 1.
[14] abbreviates: peptides at 5× CL, milder than positive control meucin-18.

Bridges are numbered along the chain shown (N, C = ends). Where no end group is shown, it is not given here.

Take `CN[C@H](CC(C)C)C(=O)N[C@H]1C(=O)N[C@@H](CC(N)=O)C(=O)N[C@H]2C(=O)N[C@H]3C(=O)N[C@H](C(=O)N[C@H](C(=O)O)c4cc(O)cc(O)c4-c4cc3ccc4O)[C@H](O)c3ccc(c(Cl)c3)Oc3cc2cc(c3O[C@@H]2O[C@H](CO)[C@@H](O)[C@H](O)[C@H]2O[C@H]2C[C@](C)(N)[C@H](O)[C@H](C)O2)Oc2ccc(cc2Cl)[C@H]1O` [vancomycin, reference compound]: the “Effect on membrane integrity (propidium iodide fluorescence)” value (shortened to “Effect on membrane integrity”) in the data set on B. megaterium cells (vancomycin at 10× CL, negative control) is reported as “no fluorescence increase”.

Regarding “DCLSGRYKGPCAVWDNETCRRVCKEEGRSSGHCSPSLKCWCEGC (disulfide 2-44, 11-33, 19-39, 23-41) [DRS, Drosomycin, reference compound]”, in data set [1], the “Lethal concentrations (CL), range over sensitive fungi” value was in the range of 0.1 to 2.6 µM. The “CL (lethal concentration)” value in data set [2] was 0.1 µM; in data set [3] it was 1.73 µM; in data set [4], 0.30 µM; in data set [5], 1.89 µM; with Aspergillus nidulans A28, 0.45 µM; in the data set with Aspergillus niger it was 1.32 µM.

With “DCLSGRYKGPCAVWDNETCRRVCKEEGRVSGHCSPSLKCWCEGC (disulfide 2-44, 11-33, 19-39, 23-41) [DtDRS-1]”, in data set [1], the “Lethal concentrations (CL), range over sensitive fungi” value lay within 0.1 to 2.6 µM. Moreover, the “CL (lethal concentration)” value in data set [2] turned out to be 0.3 µM; in data set [3] it was 2.03 µM; in data set [4], 0.33 µM; in data set [5], 2.50 µM; with Aspergillus nidulans A28, 1.25 µM; in the data set with Aspergillus niger, 2.63 µM.

“DFKSGKFKGGCMAWSGEKCRRLCKEQGAVSGHCSSNFKCWCEM (disulfide 11-33, 19-39, 23-41 (inferred)) [DtDRS-11]” yielded a Turns content of 15%. Moreover, the “CL (lethal concentration)” value in data set [6] came to 8.84 µM. Moreover, the β-Sheet content in data set [7] worked out at 16%. The same compound came in with an Unordered content in [8] of 48%. In the data set with B. megaterium cells (setting [14]), the “Effect on membrane integrity” value is on record as “immediate fluorescence increase”. The same compound gave a α-Helix content in data set [9] of 21%. For the same compound, the “CL (lethal concentration)” value in [10] is 4.41 µM. Besides, the “CL (lethal concentration)” value in data set [11] is 3.06 µM.

For the compound “DFLSGKFKGGCMMWSGEKCRRLCKEQGAVSGHCSTNFKCWCEE (disulfide 11-33, 19-39, 23-41 (inferred)) [DtDRS-11d]”, the Turns content was 15%. This compound had a β-Sheet content in data set [7] of 16%. For the same compound, in data set [12], the “CL, range over two Gram-positive bacteria” value fell in the range of 0.98 to 1.08 µM. The Unordered content in data set [8] turned out to be 53%. Further, in the data set on B. megaterium cells (setting [14]), the “Effect on membrane integrity” value is “immediate fluorescence increase”. This compound also came in with a α-Helix content in data set [9] of 18%. For the same compound, the “CL (lethal concentration)” value in data set [10] was 0.98 µM. Besides, in data set [11], the “CL (lethal concentration)” value was 1.08 µM.

“RDFLSGTFGGPCWAWSGEKCRRLCIEEGHVSGHCSGAMKCWCEG (disulfide 12-34, 20-40, 24-42 (inferred)) [DRS-3-WDB]” displayed a Turns content of 18%. The same compound came in with a β-Sheet content in data set [7] of 22%. In addition, the Unordered content in data set [8] came to 41%. Moreover, the “CL, range over two fungal species” value in data set [13] is 3.72 to 4.89 µM. Also, the α-Helix content in data set [9] worked out at 19%. In addition, the “CL (lethal concentration)” value in data set [2] is 3.72 µM. The “CL (lethal concentration)” value in data set [5] is 4.89 µM.

The values are drawn from article PMC4999892 (Scientific Reports, 2016).
